Results from patent US20100173298A1, “HCV GENE” (priority 2007, published 2010).

Experiments:
[1] = system: pTPF1/4B full-length HCV RNA replicon; assay: Inhibition of replication of full-length HCV RNA replicon by interferon (core antigen in Huh7 cells); type: cell-based, hepatitis C virus (genotype 1b); details: pTPF1/4B RNA in Huh7 cells; interferon 0.1 to 300 IU/ml for 24 hours; core antigen in cells vs no-interferon control
Excerpt: (§1) Evaluation of an inhibitory action of interferon on the replication of the HCV RNA replicon was attempted using the full-length HCV RNA replicon. The full-length HCV RNA used for the evaluation of the inhibitory action of interferon was pTPF1/4B which was replicable with high efficiency in Huh7 cells in Example 4 and a chimera between AHC1 obtained in Example 6 and pTPF1/4B was also used. As for a chimera vector, the full-length HCV DNA pTPF1 was digested with restriction enzymes, Age I and Bsr GI and a fragment obtained by digesting AHC1 with restriction enzymes, Age I and Bsr GI were ligated to and inserted into the region of the cleavage of pTPF1, thereby preparing HCV DNA pTPF1/AHC1_AgeBsr in which the structural protein region of AHC1 was inserted. […]
(§2) At twenty four hours after the culture was started, the medium was replaced with culture medium dissolving various concentrations (from 0.1 IU/ml to 300 IU/ml) of interferon. […] Cell pellet was dissolved in 50 μl of RIPA buffer (20 mM Tris-HCl (pH 7.5), 150 mM NaCl, 1 mM EDTA, 1% NP40, 0.1% Deoxycholate, 0.1% SDS, Complete protease inhibitor cocktail (Roche diagnostics corporation) and supernatant was collected by centrifugation at 10 k rpm for 5 minutes. The supernatant in an amount of 5 μl was measured using a kit for HCV core antigen (FUJIREBIO, Lumipulse).

[2] = system: pTPF1/AHC1_AgeBsr full-length HCV RNA replicon; assay: as above; type: cell-based, hepatitis C virus (genotype 1b); details: interferon 0.1 to 300 IU/ml for 24 hours, core antigen in cells vs no-interferon control
Excerpt: as §1, §2

Substance: interferon
- Inhibitory activity for replication of HCV RNA replicon: IC50 [1]: >300 IU/m
- Inhibitory activity for replication of HCV RNA replicon: IC50 [2]: 33 IU/m
